Data set [1] deals with T1, human CYP1A2 (Homo sapiens, UniProt P05177).
T1 sequence (P05177 1-516): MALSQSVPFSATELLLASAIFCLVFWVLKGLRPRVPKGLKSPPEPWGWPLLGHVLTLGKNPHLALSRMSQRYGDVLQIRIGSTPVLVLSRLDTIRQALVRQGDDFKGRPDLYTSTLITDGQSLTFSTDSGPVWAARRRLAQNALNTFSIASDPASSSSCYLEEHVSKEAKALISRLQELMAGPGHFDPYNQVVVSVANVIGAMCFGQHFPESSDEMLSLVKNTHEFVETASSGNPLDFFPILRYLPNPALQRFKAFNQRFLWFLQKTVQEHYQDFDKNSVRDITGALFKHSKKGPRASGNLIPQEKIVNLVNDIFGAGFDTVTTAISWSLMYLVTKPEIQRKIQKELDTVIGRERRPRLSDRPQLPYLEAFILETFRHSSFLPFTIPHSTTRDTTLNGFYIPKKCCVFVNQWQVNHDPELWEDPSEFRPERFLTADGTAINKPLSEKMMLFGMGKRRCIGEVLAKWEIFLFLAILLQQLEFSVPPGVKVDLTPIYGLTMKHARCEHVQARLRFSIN

Data set [2] concerns the target T2, human CYP2C9 (Homo sapiens, UniProt P11712).
For data set [3], the target named is T3, human CYP2C19 (Homo sapiens, UniProt P33261).
T3 sequence (P33261 whole entry): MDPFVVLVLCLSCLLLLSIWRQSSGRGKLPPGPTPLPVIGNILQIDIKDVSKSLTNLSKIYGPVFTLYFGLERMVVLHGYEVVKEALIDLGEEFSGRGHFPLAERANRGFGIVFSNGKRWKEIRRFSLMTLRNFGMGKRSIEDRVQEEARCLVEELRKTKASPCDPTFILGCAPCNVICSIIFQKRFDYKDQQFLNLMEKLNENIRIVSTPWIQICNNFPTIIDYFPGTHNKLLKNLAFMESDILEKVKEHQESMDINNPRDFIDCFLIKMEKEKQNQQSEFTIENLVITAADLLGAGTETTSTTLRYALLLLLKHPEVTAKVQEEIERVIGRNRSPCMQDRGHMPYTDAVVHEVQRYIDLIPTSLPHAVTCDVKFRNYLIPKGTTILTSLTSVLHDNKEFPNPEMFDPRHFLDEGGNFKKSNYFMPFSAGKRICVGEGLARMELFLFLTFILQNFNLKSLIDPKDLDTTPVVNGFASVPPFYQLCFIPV
Data set [4] addresses human CYP2D6 (Homo sapiens, UniProt P10635).
Data set [5] deals with CYP3A4 (Homo sapiens, UniProt P08684). Description: biochemical.
Sequence of CYP3A4 (P08684 whole entry): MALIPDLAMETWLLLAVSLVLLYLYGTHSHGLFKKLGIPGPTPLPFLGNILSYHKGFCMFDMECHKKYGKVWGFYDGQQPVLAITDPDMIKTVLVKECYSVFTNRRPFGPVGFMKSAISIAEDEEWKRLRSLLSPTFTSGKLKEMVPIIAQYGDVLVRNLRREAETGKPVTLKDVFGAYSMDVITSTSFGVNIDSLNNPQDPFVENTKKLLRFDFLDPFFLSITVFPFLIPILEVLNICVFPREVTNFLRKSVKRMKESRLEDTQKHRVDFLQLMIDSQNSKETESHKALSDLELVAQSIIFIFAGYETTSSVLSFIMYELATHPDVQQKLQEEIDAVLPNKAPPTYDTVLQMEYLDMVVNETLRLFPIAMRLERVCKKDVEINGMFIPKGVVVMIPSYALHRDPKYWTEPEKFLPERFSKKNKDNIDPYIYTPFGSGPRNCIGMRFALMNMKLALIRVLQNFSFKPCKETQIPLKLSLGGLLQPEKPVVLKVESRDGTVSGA
Data set [6] concerns the target T2, human CYP2C9. The data set is described as follows: biochemical.
For data set [7], the target named is T3, human CYP2C19. Description: biochemical.
Setting [8] is: CYP3A4 AC50 (half-maximal activity concentration).
[9] abbreviates: CYP2C9 AC50 (half-maximal activity concentration).
Where [10] appears, read: CYP2C19 AC50 (half-maximal activity concentration).

Structures are written as SMILES. Read-outs that look alike come from different tables or passages of the source.

Sequence of human CYP2D6 (P10635 whole entry): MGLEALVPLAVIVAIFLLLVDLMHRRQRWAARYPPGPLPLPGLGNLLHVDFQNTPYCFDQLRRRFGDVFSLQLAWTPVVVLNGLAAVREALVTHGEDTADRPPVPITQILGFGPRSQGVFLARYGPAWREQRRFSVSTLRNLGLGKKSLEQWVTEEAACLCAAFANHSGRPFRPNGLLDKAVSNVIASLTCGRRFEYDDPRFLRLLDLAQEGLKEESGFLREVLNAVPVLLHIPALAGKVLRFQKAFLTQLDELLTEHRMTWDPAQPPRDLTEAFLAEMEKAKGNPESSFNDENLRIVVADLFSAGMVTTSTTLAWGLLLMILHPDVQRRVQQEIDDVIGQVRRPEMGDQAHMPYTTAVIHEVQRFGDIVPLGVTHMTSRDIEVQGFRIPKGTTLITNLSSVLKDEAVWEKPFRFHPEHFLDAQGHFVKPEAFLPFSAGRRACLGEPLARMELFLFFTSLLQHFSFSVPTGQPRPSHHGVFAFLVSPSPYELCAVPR
T2 sequence (P11712 whole entry): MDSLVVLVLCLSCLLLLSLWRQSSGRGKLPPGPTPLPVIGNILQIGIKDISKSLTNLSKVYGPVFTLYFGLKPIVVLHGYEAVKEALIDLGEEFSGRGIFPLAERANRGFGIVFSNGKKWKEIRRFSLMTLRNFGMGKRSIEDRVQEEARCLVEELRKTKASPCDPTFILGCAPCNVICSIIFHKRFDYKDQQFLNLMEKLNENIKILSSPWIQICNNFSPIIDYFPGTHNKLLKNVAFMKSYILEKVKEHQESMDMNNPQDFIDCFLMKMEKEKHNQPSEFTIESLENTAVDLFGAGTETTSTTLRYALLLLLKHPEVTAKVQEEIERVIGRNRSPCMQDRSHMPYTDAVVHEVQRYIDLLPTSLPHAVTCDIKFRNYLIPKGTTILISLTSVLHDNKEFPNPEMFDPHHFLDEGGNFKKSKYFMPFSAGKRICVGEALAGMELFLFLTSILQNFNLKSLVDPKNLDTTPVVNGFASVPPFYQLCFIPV

The AC50 is the concentration at which the activity in the assay is half-maximal. Lower therefore signals activity at low concentration. On to `O=C(NC(=O)c1c(F)cccc1F)Nc1cc(Cl)c(Oc2ncc(C(F)(F)F)cc2Cl)c(Cl)c1` [Chlorfluazuron], for which the “CYP1A2 AC50 (half-maximal activity concentration)” value (from here on “CYP1A2 AC50”) in data set [1] is “Inactive”. For the same molecule, in data set [2], the “CYP2C9 AC50 (half-maximal activity concentration)” value (shortened to “CYP2C9 AC50”) is listed as “Inconclusive inhibitor”. Further, in data set [3], the “CYP2C19 AC50 (half-maximal activity concentration)” value (“CYP2C19 AC50” for short) is “Inconclusive inhibitor”. Further, in data set [4], the “CYP2D6 AC50 (half-maximal activity concentration)” value (“CYP2D6 AC50” for short) is listed as “Inactive”. In data set [5] (setting [8]), this molecule came in with an AC50 of 9.2 µM.
On to `CCC1(c2ccccc2)CCC(=O)NC1=O` (stereo not shown) [Glutethimide], for which the “CYP1A2 AC50” value in data set [1] is recorded as “Inactive”. Also, the “CYP2C9 AC50” value in data set [2] was “Inconclusive inhibitor”. The “CYP2C19 AC50” value in data set [3] is listed as “Inconclusive inhibitor”. Further, the “CYP2D6 AC50” value in data set [4] is given as “Inactive”. In data set [5] (setting [8]), this molecule registered an AC50 of 26 µM.
Take `C[C@@H]1CC[C@@]2(OC1)O[C@H]1C[C@H]3[C@@H]4CC[C@H]5C[C@@H](O)CC[C@]5(C)[C@H]4CC(=O)[C@]3(C)[C@H]1[C@@H]2C` [Hecogenin]: in data set [1], the “CYP1A2 AC50” value is listed as “Inactive”. In addition, the “CYP2C9 AC50” value in data set [2] was “Inactive”. The “CYP2C19 AC50” value in data set [3] is given as “Inactive”. For the same molecule, the “CYP2D6 AC50” value in data set [4] is recorded as “Inactive”. Moreover, the AC50 in data set [5] (setting [8]) was 0.98 µM.
Turning to `CCSC(=O)N(CC)C1CCCCC1` [Cycloate], the “CYP1A2 AC50” value in data set [1] is listed as “Inactive”. Moreover, the “CYP2C9 AC50” value in data set [2] is given as “Inconclusive inhibitor”. The “CYP2C19 AC50” value in data set [3] was “Inconclusive inhibitor”. The “CYP2D6 AC50” value in data set [4] was “Inactive”. Further, half-maximal activity in data set [5] (setting [8]) (AC50) was put at 31.7 µM.
For `O=C(O)c1cccc(Oc2ccccc2)c1` [3-Phenoxybenzoic acid], the “CYP1A2 AC50” value in data set [1] was “Inactive”. Further, the “CYP2C9 AC50” value in data set [2] was “Inactive”. Also, the “CYP2C19 AC50” value in data set [3] is given as “Inactive”. Further, in data set [4], the “CYP2D6 AC50” value is on record as “Inactive”. The AC50 in data set [5] is 35.6 µM.
For `O=C(CCOCCOCCOCCOCCC(=O)Nc1c(I)cc(I)c(C(=O)O)c1I)Nc1c(I)cc(I)c(C(=O)O)c1I` [Iodoxamic Acid], in data set [1], the “CYP1A2 AC50” value was “Inactive”. For the same molecule, the “CYP2C9 AC50” value in data set [2] was “Inactive”. Moreover, the “CYP2C19 AC50” value in data set [3] is “Inactive”. In addition, the “CYP2D6 AC50” value in data set [4] is recorded as “Inactive”. In data set [5], this molecule displayed an AC50 of 5.65 ± 2.66 µM.
Consider `CC(=O)[C@H]1[C@H](C#N)C[C@H]2[C@@H]3CC=C4C[C@@H](O)CC[C@]4(C)[C@H]3CC[C@@]21C` [Pregnenolone carbonitrile], for which the “CYP1A2 AC50” value in data set [1] is listed as “Inactive”. The “CYP2C9 AC50” value in data set [2] is “Inconclusive inhibitor”. Moreover, in data set [3], the “CYP2C19 AC50” value is on record as “Inactive”. In addition, the “CYP2D6 AC50” value in data set [4] is listed as “Inactive”. The same molecule displayed an AC50 in data set [5] (setting [8]) of 2.22 µM.
For `O=C(O)CCCc1c[nH]c2ccccc12` [Indole-3-butyric acid], the “CYP1A2 AC50” value in data set [1] was “Inactive”. For the same molecule, in data set [2], the “CYP2C9 AC50” value is given as “Inactive”. Also, the “CYP2C19 AC50” value in data set [3] is “Inconclusive inhibitor”. The “CYP2D6 AC50” value in data set [4] is “Inactive”. In data set [5] (setting [8]), the concentration at half-maximal activity (AC50) is 13.4 µM.
`C[C@]12CC[C@@H]3c4ccc(OC(=O)N(CCCl)CCCl)cc4CC[C@H]3[C@@H]1CC[C@@H]2O` [Estramustine]: the “CYP1A2 AC50” value in data set [1] is “Inactive”. In addition, the “CYP2C9 AC50” value in data set [2] is “Inactive”. For the same molecule, in data set [3], the “CYP2C19 AC50” value was “Inactive”. In data set [4], the “CYP2D6 AC50” value is “Inactive”. Besides, the concentration at half-maximal activity (AC50) in data set [5] (setting [8]) was 16.9 µM.
On to `O=C(CCCN1CCC(O)(c2ccc(Br)cc2)CC1)c1ccc(F)cc1` [Bromperidol], for which the “CYP1A2 AC50” value in data set [1] is given as “Inactive”. Also, in data set [2], the “CYP2C9 AC50” value is reported as “Inactive”. In addition, in data set [3], the “CYP2C19 AC50” value is “Inactive”. Also, the “CYP2D6 AC50” value in data set [4] was “Inconclusive inhibitor”. The molecule further returned an AC50 in data set [5] (setting [8]) of 4.92 µM.
As to `COc1cc(Nc2c(C#N)cnc3cc(OCCCN4CCN(C)CC4)c(OC)cc23)c(Cl)cc1Cl` [Bosutinib], the “CYP1A2 AC50” value in data set [1] was “Inactive”. For the same molecule, the “CYP2C9 AC50” value in data set [2] is “Inactive”. Besides, in data set [3], the “CYP2C19 AC50” value was “Inactive”. Moreover, in data set [4], the “CYP2D6 AC50” value is listed as “Inconclusive inhibitor”. For the same molecule, half-maximal activity in data set [5] (setting [8]) (AC50) was put at 3.48 µM.
Consider `O=C(O)c1cccc(C(=O)O)c1` [1,3-Benzenedicarboxylic acid], for which the “CYP1A2 AC50” value in data set [1] is recorded as “Inactive”. Further, the “CYP2C9 AC50” value in data set [2] is on record as “Inconclusive activator”. In data set [3], the “CYP2C19 AC50” value is recorded as “Inactive”. Also, the “CYP2D6 AC50” value in data set [4] is on record as “Inactive”. The molecule also displayed an AC50 in data set [5] (setting [8]) of 9.6 µM.
With `Clc1cc(Cl)c(-c2c(Cl)c(Cl)cc(Cl)c2Cl)cc1Cl`, the “CYP1A2 AC50” value in data set [1] is recorded as “Inactive”. For the same molecule, the “CYP2C9 AC50” value in data set [2] is on record as “Inactive”. Further, the “CYP2C19 AC50” value in data set [3] was “Inconclusive activator”. Further, in data set [4], the “CYP2D6 AC50” value is given as “Inactive”. In addition, the AC50 in data set [5] (setting [8]) worked out at 24.9 µM.
In the case of `CC(=O)[C@H]1CC[C@H]2[C@@H]3C=CC4=CC(=O)CC[C@@]4(C)[C@@H]3CC[C@]12C` [Dydrogesterone], the “CYP1A2 AC50” value in data set [1] is “Inactive”. The “CYP2D6 AC50” value in data set [4] is listed as “Inconclusive inhibitor”. In addition, the concentration at half-maximal activity (AC50) in data set [6] (setting [9]) was found to be 32.4 µM; in data set [7] (setting [10]) it was 5.49 µM; in data set [5] (setting [8]), 4.36 µM.
Turning to `N#Cc1c(Cl)cccc1Cl` [Dichlobenil], the “CYP1A2 AC50” value in data set [1] was “Inconclusive inhibitor”. Further, the “CYP2C9 AC50” value in data set [2] is on record as “Inconclusive inhibitor”. In data set [3], the “CYP2C19 AC50” value is reported as “Inactive”. Besides, in data set [4], the “CYP2D6 AC50” value is “Inactive”. In addition, the half-maximal activity concentration (AC50) in data set [5] (setting [8]) came out at 17.8 µM.
As to `CC(C)N(C(=O)SCC(Cl)=C(Cl)Cl)C(C)C` [Tri-allate], in data set [1], the “CYP1A2 AC50” value is “Inconclusive inhibitor”. For the same molecule, the “CYP2D6 AC50” value in data set [4] is on record as “Inactive”. Also, the AC50 in data set [6] (setting [9]) amounted to 33 µM; in data set [7] (setting [10]) it was 10.3 µM; in data set [5] (setting [8]) it was 2.47 µM.
Taken in the same sequence, the figures for `C[C@]12CCC(=O)C=C1C=C[C@@H]1[C@@H]2CC[C@@]2(C)[C@H]1CC[C@@]21CCC(=O)O1` [Canrenone] were “Inconclusive inhibitor”, “Inactive”, 32.2 µM, 1.67 µM and 3.48 µM.
In the case of `O=P(c1ccccc1)(c1ccccc1)c1ccccc1` [Triphenylphosphine oxide], the “CYP1A2 AC50” value in data set [1] (mean ± standard deviation from three experiments, words = activity call) is “Inconclusive inhibitor”. Besides, the “CYP2D6 AC50” value in data set [4] is “Inactive”. For the same molecule, the values for the concentration at half-maximal activity (AC50) in data set [6], in data set [7] and in data set [5] were 6.87 ± 0.95 µM, 7.22 ± 1.65 µM and 37 ± 2.51 µM, respectively.
As to `CCCCC(C=O)CC` (stereo not shown) [2-Ethylhexanal], the “CYP1A2 AC50” value in data set [1] was “Inactive”. Further, the “CYP2C9 AC50” value in data set [2] was “Inactive”. Further, in data set [3], the “CYP2C19 AC50” value is given as “Inactive”. Also, the “CYP2D6 AC50” value in data set [4] is “Inactive”. The molecule also yielded an AC50 in data set [5] of 45.1 µM.
With `CCCCCCCCOc1ccc(C(=O)c2ccccc2)c(O)c1` [Octabenzone], the “CYP1A2 AC50” value in data set [1] is listed as “Inconclusive inhibitor”. Further, the “CYP2D6 AC50” value in data set [4] is on record as “Inactive”. Moreover, the AC50 in data set [6] (setting [9]) worked out at 13.8 µM; in data set [7] (setting [10]) it was 53.3 µM; in data set [5] (setting [8]), 26.2 µM.
Consider `CC1(C)[C@H](C(=O)O[C@H](C#N)c2cccc(Oc3ccccc3)c2)[C@@H]1C=C(Br)Br` [Deltamethrin], for which, in data set [1], the “CYP1A2 AC50” value is recorded as “Inconclusive inhibitor”. Further, the “CYP2D6 AC50” value in data set [4] was “Inconclusive inhibitor”. The half-maximal activity concentration (AC50) is 3.68 µM in data set [6] (setting [9]), 8.8 µM in data set [7] (setting [10]) and 9.13 µM in data set [5] (setting [8]).
On to `CC(=O)O[C@]1(C(C)=O)CC[C@H]2[C@@H]3C=C(Cl)C4=CC(=O)CC[C@]4(C)[C@H]3CC[C@@]21C` [Chlormadinone acetate], for which the “CYP1A2 AC50” value in data set [1] is given as “Inactive”. Further, the “CYP2D6 AC50” value in data set [4] is listed as “Inactive”. Further, the AC50 in data set [6] (setting [9]) was 14.9 µM; in data set [7] (setting [10]), 5.67 µM; in data set [5] (setting [8]) it was 2.05 µM.
Regarding `C#C[C@]1(OC(C)=O)CC[C@H]2[C@@H]3CCC4=C[C@@H](OC(C)=O)CC[C@@H]4[C@H]3CC[C@@]21C` [Ethynodiol diacetate], the “CYP1A2 AC50” value in data set [1] is listed as “Inactive”. For the same molecule, the “CYP2D6 AC50” value in data set [4] is “Inactive”. Besides, the AC50 is 13.3 µM in data set [6] (setting [9]), 23.7 µM in data set [7] (setting [10]) and 3.91 µM in data set [5] (setting [8]).

The record behind these values is publication PMC12155096 (International Journal of Molecular Sciences, 2025).
